Values of other authors, collected in publication PMC4838521 (ChemMedChem, 2015).

Biological target: YopH-NT (Yersinia pestis, UniProt O68720)
Conditions: read-out: Kd for YopH-NT

YopH-NT, sequence (O68720 1-129 limits assumed): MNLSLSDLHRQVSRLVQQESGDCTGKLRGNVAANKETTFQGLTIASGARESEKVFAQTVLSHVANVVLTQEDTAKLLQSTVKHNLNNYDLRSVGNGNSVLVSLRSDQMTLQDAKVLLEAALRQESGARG

| Substance | Kd [µM] |
| --- | --- |
| cyclo-DE(pY)DDPfK | ~15 |
| cyclo-DE(pY)LDPfK | ~23 |
